Experimental data as given in patent publication US10894785B2, “Piperidine derivatives for use in the treatment of pancreatic cancer” (CENTRE HOSPITALIER UNIVERSITAIRE VAUDOIS CHUV, priority 2016, dated 2021).
One block for each compound: values may come before it.

Assays:
[1] = system: pancreatic ductal adenocarcinoma (Panc-1); assay: Anti-tumor activity on Panc-1: cell viability by sulforhodamine or MTT assay; assay type: cell-based; details: Homo sapiens, Panc-1 cells, 96 hours treatment, 0.001-1000 nM
Experimental: The compounds according to the present invention were evaluated for their anti-tumor activities on pancreatic ductal adenocarcinoma (Panc-1). To this end, 0.5×10^6 human malignant cells were treated with various concentrations (0.001-1000 nM) for 96 hours of FK866 or the compounds according to the present invention. Subsequently cell viability was determined using either sulforhodamine assays as described in Caffa I, et al. (Oncotarget. 2015 May 20; 6(14):11820-32) or MTT assays. Sulforhodamine B is a dye able that binds to cellular proteins. […] For MTT assays, human malignant cells were plated in triplicate on 96-well plates and treated as mentioned above. After 96 hours of incubation, 15 μL of dye solution was added to each well and cells were incubated for an additional 4 hours. Stop solution (100 μL/well) was added for 1 hour and the absorbance was read at 570 nm on a spectrophotometer. To confirm whether the cytotoxicity exerted by these compounds involves programmed cell death, drug-induced cell death was evaluated using annexin V and 7AAD double staining as described by the manufacturer for assessing apoptosis or autophagic-cell death using a Beckman Coulter Cytomics Gallios flow cytometer. Dead cells were identified as annexinV+ and/or 7AAD+. GraphPad Prism version 7.00 (GraphPad Software, San Diego, Calif.) was used for IC50 calculation.

[2] = Pharmacokinetics after intraperitoneal administration in female SCID mice (plasma, LC-MS/MS, non compartmental analysis); assay type: in vivo; details: 20 mg/kg IP; for CL: CL calculated as dose/AUC; for Percentage of extrapolated AUC from T6 h to infinity / T1/2α / T1/2β / half-lives in the second phase (6 h→24 h) compared with FK866 / Cmax / Tmax / AUC(0-inf) / AUC(0-t): plasma; for Percentage of extrapolated AUC from T6 h to infinity: relative to AUC0-inf; for T1/2α: t½α (0 -> 6 h); for T1/2β: t½β (6 -> 24 h); for half-lives in the second phase (6 h→24 h) compared with FK866: versus FK866; for Cmax / Tmax / AUC(0-inf) / AUC(0-t): mouse; for AUC(0-inf): log-trapezoidal rule, extrapolated to infinity; for AUC(0-t): read-out: AUC0-8 h
Experimental: The pharmacokinetics parameters of FK866, FE1199, VAL22-2 and MPM07 were determined following intraperitoneal administration (IP) in female SCID mice.
• SCID (Severe Combined ImmunoDeficiency) mice female total 144 • 25 mM in DMSO (dimethylsulfoxyde) of each test drug • Saline solution (0.9%)
Test drugs were dissolved in saline solution at 20 mg/ml. All dosing solutions were controlled by HPLC (High-Performance Liquid Chromatography) analysis. Mouse weight is estimated around 20 g.
Three mice per time point were used in each group.
Blood samples were collected on citrate at 10 min, 30 min, 1 h, 2 h, 4 h, 6 h, 8 h and 24 hours after drug administration. Following centrifugation, resulting plasma was stored at […] pending bioanalysis. Samples were analyzed by LC-MS/MS (Liquid chromatography tandem-mass spectrometry); the lower limit of quantification achieved was between 3 and 12 nM depending on drug. Non compartmental pharmacokinetic analysis was performed on plasma concentration data.

SMILES: COc1ccc(C(=O)N2CCC(CCCCNC(=O)/C=C/c3cccnc3)CC2)c(OC)c1 [FEI-56, (E)-N-(4-(1-(2,4-Dimethoxybenzoyl)piperidin-4-yl)butyl)-3-(pyridin-3-yl)acrylamide]
IC50 [1]: 3 nM

SMILES: COc1cccc(OC)c1C(=O)N1CCC(CCCCNC(=O)/C=C/c2cccnc2)CC1 [FEI-58, (E)-N-(4-(1-(2,6-Dimethoxybenzoyl)piperidin-4-yl)butyl)-3-(pyridin-3-yl)acrylamide]
IC50 [1]: 0.6 nM

SMILES: COc1cc(OC)c(C(=O)N2CCC(CCCCNC(=O)/C=C/c3cccnc3)CC2)c(OC)c1 [FEI-62, (E)-3-(Pyridin-3-yl)-N-(4-(1-(2,4,6-trimethoxybenzoyl)piperidin-4-yl)butyl)acrylamide]
IC50 [1]: 1 nM

SMILES: COc1ccoc1C(=O)N1CCC(CCCCNC(=O)/C=C/c2cccnc2)CC1 [FEI-71, (E)-N-(4-(1-(3-Methoxyfuran-2-carbonyl)piperidin-4-yl)butyl)-3-(pyridin-3-yl)acrylamide]
IC50 [1]: 7 nM

SMILES: O=C(/C=C/c1cccnc1)NCCCCC1CCN(C(=O)c2ccno2)CC1 [FEI-74, (E)-N-(4-(1-(Isoxazole-5-carbonyl)piperidin-4-yl)butyl)-3-(pyridin-3-yl)acrylamide]
IC50 [1]: 5 nM

SMILES: COc1cc(C=O)cc(OC)c1C(=O)N1CCC(CCCCNC(=O)/C=C/c2cccnc2)CC1 [FEI-75, (E)-N-(4-(1-(4-Formyl-2,6-dimethoxybenzoyl)piperidin-4-yl)butyl)-3-(pyridin-3-yl)acrylamide]
IC50 [1]: 2 nM

SMILES: O=C(/C=C/c1cccnc1)NC/C=C/CC1CCN(C(=O)c2ccccc2)CC1 [FEI-80, (E)-N-((E)-4-(1-Benzoylpiperidin-4-yl)but-2-en-1-yl)-3-(pyridin-3-yl)acrylamide]
IC50 [1]: 9 nM

SMILES: COc1cccc(OC)c1C(=O)N1CCC(C/C=C/CNC(=O)/C=C/c2cccnc2)CC1 [FEI-81, (E)-N-((E)-4-(1-(2,6-Dimethoxybenzoyl)piperidin-4-yl)but-2-en-1-yl)-3-(pyridin-3-yl)acrylamide]
IC50 [1]: 2.3 nM

SMILES: COc1cc(OC)c(C(=O)N2CCC(C/C=C/CNC(=O)/C=C/c3cccnc3)CC2)c(OC)c1 [FEI-82, (E)-3-(Pyridin-3-yl)-N-((E)-4-(1-(2,4,6-trimethoxybenzoyl)piperidin-4-yl)but-2-en-1-yl)acrylamide]
IC50 [1]: 0.4 nM

SMILES: O=C(/C=C/c1cccnc1)NC/C=C/CC1CCN(C(=O)c2ccco2)CC1 [FEI-83, (E)-N-((E)-4-(1-(Furan-2-carbonyl)piperidin-4-yl)but-2-en-1-yl)-3-(pyridin-3-yl)acrylamide]
IC50 [1]: 15 nM

SMILES: O=C(/C=C/c1cccnc1)NC/C=C/CC1CCN(C(=O)c2cccs2)CC1 [FEI-85, (E)-3-(Pyridin-3-yl)-N-((E)-4-(1-(thiophene-2-carbonyl)piperidin-4-yl)but-2-en-1-yl)acrylamide]
IC50 [1]: 2 nM

SMILES: COc1cccc(OC)c1C(=O)N1CCC(CCCCNC(=O)/C=C/c2cccnc2F)CC1 [MPM-08]
IC50 [1]: 6 nM

SMILES: COc1cccc(OC)c1C(=O)N1CCC(CCCCNC(=O)/C=C/c2ccc(F)nc2F)CC1 [MPM-09]
IC50 [1]: 2 nM

SMILES: COc1cc(C=O)cc(OC)c1C(=O)N1CCC(CCCCNC(=O)/C=C/c2cccnc2F)CC1 [MPM-13]
IC50 [1]: 15.5 nM

SMILES: CCCn1cc(C=O)c(C(=O)N2CCC(CCCCNC(=O)/C=C/c3cccnc3F)CC2)c1C [MPM-14, (E)-3-(2-fluoropyridin-3-yl)-N-(4-(1-(4-formyl-2-methyl-1-propyl-1H-pyrrole-3-carbonyl)piperidin-4-yl)butyl)acrylamide]
IC50 [1]: 7.54 nM

SMILES: O=C(/C=C/c1cccnc1F)NCCCCC1CCN(C(=O)c2ccccc2)CC1 [VAL22-2, (E)-N-(4-(1-benzoylpiperidin-4-yl)butyl)-3-(2-fluoropyridin-3-yl)acrylamide]
CL [2]: 23.6 mL/h | Percentage of extrapolated AUC from T6 h to infinity [2]: 1.4% | T1/2α [2]: 27.6 min | T1/2β [2]: 515 min | half-lives in the second phase (6 h→24 h) compared with FK866 [2]: improved and longer half-lives | Cmax [2]: 16900 ng/mL | Tmax [2]: 10 min | AUC(0-inf) [2]: 8470 ng·h/mL | AUC(0-t) [2]: 8400 ng·h/mL

Continued, values first:

IC50 [1]: 3.9 nM
SMILES: N#C/N=C(\NCCCCC1CCN(C(=O)c2ccccc2)CC1)Nc1ccncc1 [FEI-154, (E)-1-(4-(1-Benzoylpiperidin-4-yl)butyl)-2-cyano-3-(pyridin-4-yl)guanidine]

IC50 [1]: 6.8 nM
SMILES: N#C/N=C(\NCCCCC1CCN(C(=O)c2ccco2)CC1)Nc1ccncc1 [FEI-158, (E)-2-Cyano-1-(4-(1-(furan-2-carbonyl)piperidin-4-yl)butyl)-3-(pyridin-4-yl)guanidine]

IC50 [1]: 18 nM
SMILES: N#C/N=C(\NCCCCC1CCN(C(=O)c2ccco2)CC1)Nc1ccc(F)nc1 [FEI-170, (E)-2-Cyano-1-(6-fluoropyridin-3-yl)-3-(4-(1-(furan-2-carbonyl)piperidin-4-yl)butyl)guanidine]

IC50 [1]: 12 nM
SMILES: N#C/N=C(\NCCCCC1CCN(C(=O)c2cccs2)CC1)Nc1ccc(F)nc1 [FEI-171, (E)-2-Cyano-1-(6-fluoropyridin-3-yl)-3-(4-(1-(thiophene-2-carbonyl)piperidin-4-yl)butyl)guanidine]

IC50 [1]: 2.6 nM
SMILES: N#C/N=C(\NCCCCCC1CCN(C(=O)c2ccccc2)CC1)Nc1ccncc1 [FEI-190, (E)-1-(5-(1-Benzoylpiperidin-4-yl)pentyl)-2-cyano-3-(pyridin-4-yl)guanidine]

IC50 [1]: 1.9 nM
SMILES: N#C/N=C(\NCCCCCC1CCN(C(=O)c2ccco2)CC1)Nc1ccncc1 [FEI-191, (E)-2-Cyano-1-(5-(1-(furan-2-carbonyl)piperidin-4-yl)pentyl)-3-(pyridin-4-yl)guanidine]

IC50 [1]: 2.3 nM
SMILES: N#C/N=C(\NCCCCCC1CCN(C(=O)c2cccs2)CC1)Nc1ccncc1 [FEI-192, (E)-2-Cyano-1-(pyridin-4-yl)-3-(5-(1-(thiophene-2-carbonyl)piperidin-4-yl)pentyl)guanidine]

IC50 [1]: 4.8 nM
SMILES: COc1cccc(OC)c1C(=O)N1CCC(CCCCCN/C(=N\C#N)Nc2ccncc2)CC1 [FEI-193, (E)-2-Cyano-1-(5-(1-(2,6-dimethoxybenzoyl)piperidin-4-yl)pentyl)-3-(pyridin-4-yl)guanidine]

IC50 [1]: 5 nM
SMILES: N#C/N=C(\NC/C=C/CCC1CCN(C(=O)c2ccccc2)CC1)Nc1cccnc1 [FEI-194, (E)-1-((E)-5-(1-Benzoylpiperidin-4-yl)pent-2-en-1-yl)-2-cyano-3-(pyridin-3-yl)guanidine]

IC50 [1]: 4.6 nM
SMILES: N#C/N=C(\NC/C=C/CCC1CCN(C(=O)c2ccco2)CC1)Nc1cccnc1 [FEI-195, (E)-2-Cyano-1-((E)-5-(1-(furan-2-carbonyl)piperidin-4-yl)pent-2-en-1-yl)-3-(pyridin-3-yl)guanidine]

IC50 [1]: 5.9 nM
SMILES: N#C/N=C(\NC/C=C/CCC1CCN(C(=O)c2cccs2)CC1)Nc1cccnc1 [FEI-196, (E)-2-Cyano-1-(pyridin-3-yl)-3-((E)-5-(1-(thiophene-2-carbonyl)piperidin-4-yl)pent-2-en-1-yl)guanidine]

IC50 [1]: 5 nM
SMILES: N#C/N=C(\NC/C=C/CCC1CCN(C(=O)c2ccccc2)CC1)Nc1ccncc1 [FEI-198, (E)-1-((E)-5-(1-Benzoylpiperidin-4-yl)pent-2-en-1-yl)-2-cyano-3-(pyridin-4-yl)guanidine]

CL [2]: 38.3 mL/h | Percentage of extrapolated AUC from T6 h to infinity [2]: 0.5% | T1/2α [2]: 18.6 min | T1/2β [2]: 606.6 min | half-lives in the second phase (6 h→24 h) compared with FK866 [2]: improved and longer half-lives | Cmax [2]: 12100 ng/mL | Tmax [2]: 10 min | AUC(0-inf) [2]: 5230 ng·h/mL | AUC(0-t) [2]: 5200 ng·h/mL | IC50 [1]: 2.6 nM
SMILES: N#C/N=C(\NC/C=C/CCC1CCN(C(=O)c2ccco2)CC1)Nc1ccncc1 [FEI-199, (E)-2-Cyano-1-((E)-5-(1-(furan-2-carbonyl)piperidin-4-yl)pent-2-en-1-yl)-3-(pyridin-4-yl)guanidine]

IC50 [1]: 2.4 nM
SMILES: N#C/N=C(\NC/C=C/CCC1CCN(C(=O)c2cccs2)CC1)Nc1ccncc1 [FEI-200, (E)-2-Cyano-1-(pyridin-4-yl)-3-((E)-5-(1-(thiophene-2-carbonyl)piperidin-4-yl)pent-2-en-1-yl)guanidine]

IC50 [1]: 8.2 nM
SMILES: COc1cccc(OC)c1C(=O)N1CCC(CCCCNC(=O)Nc2ccncc2)CC1 [FEI-209, 1-(4-(1-(2,6-Dimethoxybenzoyl)piperidin-4-yl)butyl)-3-(pyridin-4-yl)urea]

IC50 [1]: 14 nM
SMILES: O=C(/C=C/c1ccc(F)nc1F)NCCCCC1CCN(C(=O)c2ccccc2)CC1 [PER-201, (E)-N-(4-(1-benzoylpiperidin-4-yl)butyl)-3-(2,6-difluoropyridin-3-yl)acrylamide]

IC50 [1]: 5 nM
SMILES: O=C(/C=C/c1ccc(F)nc1F)NCCCCC1CCN(C(=O)c2cccs2)CC1 [PER-202]
